Results published in PubChem BioAssay (NCI).
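Tested at 5 concentrations; 48 h exposure; 96-well plates; endpoints linearly interpolated, else capped at highest concentration. TGI marks complete inhibition of growth.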

How the values were obtained:
Experiment in all cases: NCI-60 cell line screen, 48 h
[1] = test system: EKVX NSCLC
[2] = test system: MOLT-4 leukemia
[3] = test system: SNB-19 CNS
[4] = test system: HCT-15 colon
[5] = test system: DU-145 prostate
[6] = test system: BT-549 breast
[7] = test system: MALME-3M melanoma
[8] = test system: MCF7 breast
[9] = test system: A498 renal
[10] = test system: NCI-H522 lung
[11] = test system: HT29 colon
[12] = test system: UACC-257 melanoma
[13] = test system: HL-60(TB) leukemia
[14] = test system: M14 melanoma
[15] = test system: NCI/ADR-RES ovarian
[16] = test system: SK-MEL-2 melanoma
[17] = test system: ACHN renal
[18] = test system: HCT-116 colon
[19] = test system: SK-MEL-5 melanoma
[20] = test system: OVCAR-8 ovarian
[21] = test system: U251 CNS
[22] = test system: CCRF-CEM leukemia
[23] = test system: HOP-62 NSCLC
[24] = test system: SF-268 CNS
[25] = test system: SNB-75 CNS
[26] = test system: KM12 colon
[27] = test system: COLO 205 colon
[28] = test system: SW-620 colon
[29] = test system: HOP-92 NSCLC
[30] = test system: HS 578T breast
[31] = test system: HCC-2998 colon
[32] = test system: A549 NSCLC
[33] = test system: OVCAR-4 ovarian
[34] = test system: IGROV1 ovarian
[35] = test system: PC-3 prostate
[36] = test system: TK-10 renal
[37] = test system: UO-31 renal
[38] = test system: MDA-N
[39] = test system: OVCAR-5 ovarian
[40] = test system: T-47D breast
[41] = test system: NCI-H23 lung
[42] = test system: NCI-H226 lung
[43] = test system: LOX IMVI melanoma
[44] = test system: 786-0 renal
[45] = test system: SK-MEL-28 melanoma
[46] = test system: NCI-H460 lung
[47] = test system: SF-295 CNS
[48] = test system: MDA-MB-435
[49] = test system: OVCAR-3 ovarian
[50] = test system: UACC-62 melanoma
[51] = test system: MDA-MB-231 breast
[52] = test system: CAKI-1 renal
[53] = test system: SN12C renal
[54] = test system: SK-OV-3 ovarian
[55] = test system: SF-539 CNS
[56] = test system: K-562 leukemia
[57] = test system: RPMI-8226 leukemia
[58] = test system: SR leukemia
[59] = test system: RXF 393 renal

For `O=C(CC(=O)N1N=C(N2CCCCC2)CC1c1ccccc1)Nc1ccc(Cl)cc1` (configuration not stated), the TGI [1] was > 100 µM, the TGI [2] was > 100 µM and the TGI [3] was > 100 µM. The TGI [4] was > 100 µM, the TGI [5] was > 100 µM and the TGI [6] was > 100 µM. The TGI [7] was > 100 µM, the TGI [8] was > 100 µM and the TGI [9] was > 100 µM. The TGI [10] was > 100 µM, the TGI [11] was > 100 µM and the TGI [12] was > 100 µM. For the same molecule, the TGI [13] was > 100 µM, the TGI [14] was > 100 µM and the TGI [15] was > 100 µM. The TGI [16] was > 100 µM, the TGI [17] was > 100 µM and the TGI [18] was > 100 µM. For the same molecule, the TGI [19] was > 100 µM, the TGI [20] was > 100 µM and the TGI [21] was > 100 µM. The TGI [22] was > 100 µM, the TGI [23] was > 100 µM and the TGI [24] was > 100 µM. The TGI [25] was > 100 µM, the TGI [26] was > 100 µM and the TGI [27] was > 100 µM. For the same molecule, the TGI [28] was > 100 µM, the TGI [29] was > 100 µM and the TGI [30] was > 100 µM. The TGI [31] was > 100 µM, the TGI [32] was > 100 µM and the TGI [33] was > 100 µM. For the same molecule, the TGI [34] was > 100 µM, the TGI [35] was > 100 µM and the TGI [36] was > 100 µM. For the same molecule, the TGI [37] was > 100 µM, the TGI [38] was > 100 µM and the TGI [39] was > 100 µM. The TGI [40] was > 100 µM, the TGI [41] was > 100 µM and the TGI [42] was > 100 µM. The TGI [43] was > 100 µM, the TGI [44] was > 100 µM and the TGI [45] was > 100 µM. The TGI [46] was > 100 µM, the TGI [47] was > 100 µM and the TGI [48] was > 100 µM. For the same molecule, the TGI [49] was > 100 µM, the TGI [50] was > 100 µM and the TGI [51] was > 100 µM. The TGI [52] was > 100 µM and the TGI [53] was > 100 µM.

For `CCc1n[nH]c(=O)n1/N=C/c1ccccc1Cl`, the TGI [1] was 29.4 µM, the TGI [2] was > 100 µM and the TGI [3] was > 100 µM. For the same molecule, the TGI [4] was > 100 µM, the TGI [5] was > 100 µM and the TGI [6] was > 100 µM. The TGI [7] was > 100 µM, the TGI [8] was > 100 µM and the TGI [9] was > 100 µM. For the same molecule, the TGI [10] was > 100 µM, the TGI [11] was > 100 µM and the TGI [54] was > 100 µM. For the same molecule, the TGI [12] was > 100 µM, the TGI [13] was > 100 µM and the TGI [14] was > 100 µM. For the same molecule, the TGI [15] was > 100 µM, the TGI [16] was > 100 µM and the TGI [17] was > 100 µM. For the same molecule, the TGI [55] was > 100 µM, the TGI [18] was > 100 µM and the TGI [19] was > 100 µM. The TGI [20] was > 100 µM, the TGI [21] was > 100 µM and the TGI [22] was > 100 µM. For the same molecule, the TGI [23] was > 100 µM, the TGI [24] was > 100 µM and the TGI [26] was > 100 µM. The TGI [27] was > 100 µM, the TGI [28] was > 100 µM and the TGI [56] was > 100 µM. For the same molecule, the TGI [29] was > 100 µM, the TGI [57] was > 100 µM and the TGI [30] was 10.2 µM. For the same molecule, the TGI [31] was > 100 µM, the TGI [32] was > 100 µM and the TGI [33] was > 100 µM. For the same molecule, the TGI [34] was > 100 µM, the TGI [36] was > 100 µM and the TGI [37] was > 100 µM. The TGI [38] was > 100 µM, the TGI [39] was > 100 µM and the TGI [40] was > 100 µM. The TGI [41] was > 100 µM, the TGI [42] was > 100 µM and the TGI [43] was > 100 µM. The TGI [44] was > 100 µM, the TGI [45] was > 100 µM and the TGI [46] was > 100 µM. For the same molecule, the TGI [47] was > 100 µM, the TGI [58] was > 100 µM and the TGI [48] was > 100 µM. For the same molecule, the TGI [49] was > 100 µM, the TGI [59] was > 100 µM and the TGI [50] was > 100 µM. The TGI [51] was > 100 µM, the TGI [52] was > 100 µM and the TGI [53] was > 100 µM.

For `COc1ccc(N=C(C)c2ccncc2)cc1`, the TGI [1] was > 100 µM, the TGI [2] was > 100 µM and the TGI [3] was > 100 µM. The TGI [4] was > 100 µM, the TGI [5] was > 100 µM and the TGI [6] was > 100 µM. The TGI [7] was > 100 µM, the TGI [8] was > 100 µM and the TGI [9] was > 100 µM. The TGI [10] was > 100 µM, the TGI [11] was > 100 µM and the TGI [54] was > 100 µM. The TGI [12] was > 100 µM, the TGI [14] was > 100 µM and the TGI [15] was > 100 µM. The TGI [16] was > 100 µM, the TGI [17] was > 100 µM and the TGI [55] was 61.4 µM. For the same molecule, the TGI [18] was > 100 µM, the TGI [19] was > 100 µM and the TGI [20] was > 100 µM. The TGI [21] was > 100 µM, the TGI [22] was > 100 µM and the TGI [23] was > 100 µM. The TGI [24] was > 100 µM, the TGI [25] was > 100 µM and the TGI [26] was > 100 µM. For the same molecule, the TGI [27] was > 100 µM, the TGI [28] was > 100 µM and the TGI [56] was > 100 µM. The TGI [29] was > 100 µM, the TGI [57] was > 100 µM and the TGI [30] was > 100 µM. The TGI [31] was > 100 µM, the TGI [32] was > 100 µM and the TGI [33] was > 100 µM. The TGI [34] was > 100 µM, the TGI [35] was > 100 µM and the TGI [36] was > 100 µM. The TGI [37] was > 100 µM, the TGI [38] was > 100 µM and the TGI [39] was > 100 µM. For the same molecule, the TGI [40] was > 100 µM, the TGI [41] was > 100 µM and the TGI [42] was > 100 µM. The TGI [43] was > 100 µM, the TGI [44] was > 100 µM and the TGI [45] was > 100 µM. For the same molecule, the TGI [46] was > 100 µM, the TGI [47] was > 100 µM and the TGI [48] was > 100 µM. For the same molecule, the TGI [49] was > 100 µM, the TGI [59] was > 100 µM and the TGI [50] was > 100 µM. For the same molecule, the TGI [51] was > 100 µM, the TGI [52] was > 100 µM and the TGI [53] was > 100 µM.
